Source: PMC8118430, “Utility of novel 2-furanones in synthesis of other heterocyclic compounds having anti-inflammatory activity with dual COX2/LOX inhibition” (Journal of Enzyme Inhibition and Medicinal Chemistry, 2021)
Like-named read-outs stand apart in the source and are kept apart here.

Legend:
COX-2 = biological target: T1, COX-2 (Homo sapiens, UniProt P35354); experiment: Cyclooxygenase COX-2 inhibition assay (Cayman COX inhibitor screening kit, EIA); details: for Selectivity indexes (SI): SI = IC50 COX-1/COX-2 ratios
T1 sequence (P35354 18-604): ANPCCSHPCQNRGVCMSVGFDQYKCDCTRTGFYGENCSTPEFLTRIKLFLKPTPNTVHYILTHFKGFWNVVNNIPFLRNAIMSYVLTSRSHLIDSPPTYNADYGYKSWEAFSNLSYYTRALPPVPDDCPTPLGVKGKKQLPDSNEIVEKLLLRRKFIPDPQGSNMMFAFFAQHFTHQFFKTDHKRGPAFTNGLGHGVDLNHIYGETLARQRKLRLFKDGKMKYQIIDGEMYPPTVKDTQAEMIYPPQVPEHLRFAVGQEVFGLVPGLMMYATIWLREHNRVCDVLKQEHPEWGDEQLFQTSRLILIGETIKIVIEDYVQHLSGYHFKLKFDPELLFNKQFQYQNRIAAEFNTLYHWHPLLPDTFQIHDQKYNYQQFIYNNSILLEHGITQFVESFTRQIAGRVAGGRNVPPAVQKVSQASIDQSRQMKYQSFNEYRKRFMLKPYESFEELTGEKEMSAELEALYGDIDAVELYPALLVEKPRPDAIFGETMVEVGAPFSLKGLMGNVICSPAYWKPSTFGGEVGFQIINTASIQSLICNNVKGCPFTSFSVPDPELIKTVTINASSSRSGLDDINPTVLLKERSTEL
Protocol: (§1) Tested compounds were dissolved in DMSO. […] The COX inhibitor screening assay depends on direct measurement of the amount of PG2α produced in the COX reaction. […] Enzyme catalysis was terminated by addition of 50 µl 1 M HCl and 100 µl of the saturated stannous chloride solution. The PGs are quantified by enzyme immunoassay (EIA) at 410 nm.
(§2) Thus, the newly synthesised compounds were tested for their anti-inflammatory activity against isozymes COX-1 and COX-2, which were determined by the COX-catalysed transformation of AA into PGH2 that was reduced to PGF2α and detected by the EIA[53], as shown in Table 1.

15-LOX = biological target: T2, 15-LOX (Glycine max, UniProt P08170); experiment: Lipoxygenase (15-LOX) inhibition assay (Cayman LOX inhibitor screening kit); type: biochemical, soybean; details: mean ± SD of three experiments
T2 construct: purchased Cayman Chemical 760700
T2 sequence (P08170 1-839): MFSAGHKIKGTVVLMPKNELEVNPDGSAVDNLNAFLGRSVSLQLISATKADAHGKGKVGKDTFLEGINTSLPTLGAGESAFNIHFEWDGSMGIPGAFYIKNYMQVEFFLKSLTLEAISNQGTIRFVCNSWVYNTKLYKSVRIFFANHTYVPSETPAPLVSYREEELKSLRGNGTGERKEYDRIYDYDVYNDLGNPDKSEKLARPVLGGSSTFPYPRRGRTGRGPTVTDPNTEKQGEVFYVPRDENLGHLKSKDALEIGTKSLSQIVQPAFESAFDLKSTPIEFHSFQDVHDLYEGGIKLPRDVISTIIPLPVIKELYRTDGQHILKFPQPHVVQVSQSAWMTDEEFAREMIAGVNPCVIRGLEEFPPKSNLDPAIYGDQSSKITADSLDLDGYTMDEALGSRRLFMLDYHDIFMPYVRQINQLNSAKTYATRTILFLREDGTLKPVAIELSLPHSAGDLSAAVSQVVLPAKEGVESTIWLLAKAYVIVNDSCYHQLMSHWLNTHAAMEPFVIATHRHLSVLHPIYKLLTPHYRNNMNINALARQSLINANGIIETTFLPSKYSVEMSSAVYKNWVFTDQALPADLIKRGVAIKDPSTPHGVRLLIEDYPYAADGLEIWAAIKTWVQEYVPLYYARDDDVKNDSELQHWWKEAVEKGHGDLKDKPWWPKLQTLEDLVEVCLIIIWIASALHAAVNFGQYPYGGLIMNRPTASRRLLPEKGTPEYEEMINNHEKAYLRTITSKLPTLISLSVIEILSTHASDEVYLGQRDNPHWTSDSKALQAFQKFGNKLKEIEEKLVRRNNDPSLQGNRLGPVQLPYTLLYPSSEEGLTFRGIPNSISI
Protocol: Briefly, in a 96-well plate, 10 µl of each test compound (dissolved in DMSO) or vehicle were pre-incubated with 90 µl of 15-LOX enzyme. The reaction was started by addition of 10 µl of substrate (AA) and the plate was shaken for at least 5 min. Then, 100 µl of chromogen supplied with the kit was added to each well to stop the enzymatic reaction and develop the colour. The absorbance was measured at 490 nm using microplate reader.
Therefore, the soybean LOX is most like the mammalian 15-LOX[59].

COX-1 = biological target: T3, COX-1 (Ovis aries, UniProt P05979); experiment: Cyclooxygenase COX-1 inhibition assay (Cayman COX inhibitor screening kit, EIA)
T3 sequence (P05979 25-600): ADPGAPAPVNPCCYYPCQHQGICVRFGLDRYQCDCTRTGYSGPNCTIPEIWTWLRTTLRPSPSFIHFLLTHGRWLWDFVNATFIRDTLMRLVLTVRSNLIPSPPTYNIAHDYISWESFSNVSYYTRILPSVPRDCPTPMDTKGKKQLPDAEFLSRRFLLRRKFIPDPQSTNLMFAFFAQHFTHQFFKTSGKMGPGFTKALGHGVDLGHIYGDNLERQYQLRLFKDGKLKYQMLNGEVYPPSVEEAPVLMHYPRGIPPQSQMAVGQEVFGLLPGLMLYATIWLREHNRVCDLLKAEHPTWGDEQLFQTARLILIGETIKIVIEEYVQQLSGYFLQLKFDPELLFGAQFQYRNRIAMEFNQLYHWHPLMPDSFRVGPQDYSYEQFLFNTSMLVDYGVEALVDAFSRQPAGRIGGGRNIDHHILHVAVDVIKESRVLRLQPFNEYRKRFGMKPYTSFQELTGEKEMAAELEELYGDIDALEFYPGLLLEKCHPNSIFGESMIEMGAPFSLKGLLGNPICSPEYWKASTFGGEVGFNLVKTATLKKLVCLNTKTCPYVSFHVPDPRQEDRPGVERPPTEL
Protocol: as §1, §2

TNF-α = biological target: T4, TNF-α (Homo sapiens, UniProt P01375); experiment: TNFR2: TNF-α [biotinylated] inhibitor screening assay; type: binding; details: mean ± SD of three experiments
T4 construct: purchased BPS Bioscience 79756
T4 sequence (P01375 77-233 limits assumed): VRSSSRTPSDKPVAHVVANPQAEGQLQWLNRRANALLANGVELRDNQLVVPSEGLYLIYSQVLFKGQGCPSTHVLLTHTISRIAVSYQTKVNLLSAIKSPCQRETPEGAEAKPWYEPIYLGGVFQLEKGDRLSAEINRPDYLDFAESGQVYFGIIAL
Protocol: The assay was performed in triplicates using TNFR2: TNF-α [biotinylated] […] First, TNFR2 is coated on a 96-well plate. Next, biotinylated TNF-α is incubated with TNFR2 on the plate. Finally, the plate was treated with streptavidin-HRP followed by addition of an HRP substrate to produce chemiluminescence, which can be measured using a chemiluminescence reader.

[1] = read-out: COX 2 IC50, mean ± SD of three experiments
[2] = read-out: COX1 IC50, mean ± SD of three experiments

IC50 (COX-2) [µM] | Selectivity indexes (SI) (COX-2) | IC50 (15-LOX) [µM] | IC50 (COX-1) [µM] | IC50 (TNF-α) [µM] | melting point [°C] | times less active than the reference drug indomethacin as COX-1 inhibitor (COX-1; ratio of COX-1 IC50 values) | IC50 (COX-2; [1]) [µM] | IC50 (COX-1; [2]) [µM] | SMILES
0.35 ± 0.01 | 12.94 | 5.1 ± 0.1 | 4.53 ± 0.12 | 0.00747 ± 0.00012 | 259 to 261 |  |  |  | O=C1OC(c2ccc(Cl)c(Cl)c2)=CC1=Cc1ccccc1[N+](=O)[O-] [Compound 2a, 5-(3,4-Dichlorophenyl)3-(2-nitrobenzylidene)-furan-2-one]
0.28 ± 0.01 | 24.89 | 4.4 ± 0.1 | 6.97 ± 0.12 | 0.00777 ± 0.00168 | 230 to 232 |  |  |  | O=C1OC(c2ccc(Cl)c(Cl)c2)=CC1=Cc1cccc([N+](=O)[O-])c1 [Compound 2b, 5-(3,4-Dichlorophenyl)3-(3-nitrobenzylidene)-furan-2-one]
0.42 ± 0.02 | 9.36 | 6.13 ± 0.12 | 3.93 ± 0.06 | 0.0082 ± 0.0001 | 204 to 206 | 39 |  |  | CN(C)c1ccc(C=C2C=C(c3ccc(Cl)c(Cl)c3)OC2=O)cc1 [Compound 2c, 5-(3,4-Dichlorophenyl)3-(4-dimethylaminobenzylidene)-furan-2-one]
0.19 ± 0.01 | 44.05 | 2.33 ± 0.12 | 8.37 ± 0.12 | 0.00593 ± 0.00015 | > 300 |  |  |  | O=C1NC(c2ccc(Cl)c(Cl)c2)=CC1=Cc1ccccc1[N+](=O)[O-] [Compound 3a, 5-(3,4-Dichlorophenyl)-3-(2-nitrobenzylidene)-1H-pyrrol-2-one]
0.39 ± 0.01 | 17.62 | 1.87 ± 0.15 | 6.87 ± 0.12 | 0.00827 ± 0.00012 | > 300 |  |  |  | O=C1NC(c2ccc(Cl)c(Cl)c2)=CC1=Cc1cccc([N+](=O)[O-])c1 [Compound 3b, 5-(3,4-Dichlorophenyl)-3-(3-nitrobenzylidene)-1H-pyrrol-2-one]
0.34 ± 0.01 | 17.44 | 2.21 ± 0.98 | 5.93 ± 0.15 | 0.00677 ± 0.00012 | > 300 |  |  |  | CN(C)c1ccc(C=C2C=C(c3ccc(Cl)c(Cl)c3)NC2=O)cc1 [Compound 3c, 5-(3,4-Dichlorophenyl)-3-(4-dimethylaminobenzylidene)-1H-pyrrol-2-one]
0.05 | 221.40 | 5.47 ± 0.12 | 11.1 ± 0.15 | 0.00477 ± 0.00012 | 250 to 252 |  |  |  | O=C(NCc1ccccc1)C(=Cc1ccccc1[N+](=O)[O-])CC(=O)c1ccc(Cl)c(Cl)c1 [Compound 4a, N-benzyl-2-(2-nitrobenzylidene)-4-(3,4-dichlorophenyl)-4-oxobutanamide]
0.06 | 222.17 | 5.87 ± 0.06 | 13.3 ± 0.15 | 0.00353 ± 0.00012 | 124 to 126 |  |  |  | O=C(NCc1ccccc1)C(=Cc1cccc([N+](=O)[O-])c1)CC(=O)c1ccc(Cl)c(Cl)c1 [Compound 4b, N-benzyl-2-(3-nitrobenzylidene)-4-(3,4-dichlorophenyl)-4-oxobutanamide]
0.05 | 238.00 | 4.67 ± 0.06 | 11.9 ± 0.1 | 0.00547 ± 0.00012 | 241 to 243 |  |  |  | CN(C)c1ccc(C=C(CC(=O)c2ccc(Cl)c(Cl)c2)C(=O)NCc2ccccc2)cc1 [Compound 4c, N-benzyl-2-(4-dimethylaminobenzylidene]-4-(3,4-dichlorophenyl)-4-oxobutanamide]
0.06 | 212.17 | 2.7 ± 0.95 | 12.73 ± 0.12 | 0.00493 ± 6e-05 | > 300 |  |  |  | O=C1NN(c2ccccc2)C(c2ccc(Cl)c(Cl)c2)=CC1=Cc1ccccc1[N+](=O)[O-] [Compound 5a, 6-(3,4-Dichlorophenyl)-4-(2-nitrobenzylidene)-1-phenyl-1,4-dihydropyridazin-3(2H)-one]
0.04 | 325.00 | 2.43 ± 0.12 | 13 ± 0.1 | 0.00327 ± 0.00012 | > 300 |  |  |  | O=C1NN(c2ccccc2)C(c2ccc(Cl)c(Cl)c2)=CC1=Cc1cccc([N+](=O)[O-])c1 [Compound 5b, 6-(3,4-Dichlorophenyl)-4-(3-nitrobenzylidene)-1-phenyl-1,4-dihydropyridazin-3(2H)-one]
0.09 | 130.33 | 2.97 ± 0.12 | 11.7 ± 0.12 | 0.00357 ± 0.00012 | > 300 |  |  |  | CN(C)c1ccc(C=C2C=C(c3ccc(Cl)c(Cl)c3)N(c3ccccc3)NC2=O)cc1 [Compound 5c, 6-(3,4-Dichlorophenyl)-4-(4-dimethylaminobenzylidene)-1-phenyl-1,4-dihydropyridazin-3(2H)-one]
 | 41.35 | 5.47 ± 0.12 |  | 0.00853 ± 0.00012 |  |  | 0.17 ± 0.01 | 7.03 ± 0.15 | O=c1[nH]nc(-c2ccc(Cl)c(Cl)c2)cc1Cc1ccccc1[N+](=O)[O-] [Compound 7a, 3-(3,4-Dichlorophenyl)-5-[(2-nitropheny)l-methyl]-1H-pyridazin-6-one]
 | 26.68 | 5.87 ± 0.06 |  | 0.00817 ± 6e-05 |  |  | 0.25 ± 0.01 | 6.67 ± 0.12 | O=c1[nH]nc(-c2ccc(Cl)c(Cl)c2)cc1Cc1cccc([N+](=O)[O-])c1 [Compound 7b, 3-(3,4-Dichlorophenyl)-5-[(3-nitropheny)l-methyl]-1H-pyridazin-6-one]
 | 69.42 | 4.67 ± 0.06 |  | 0.00757 ± 6e-05 |  |  | 0.12 ± 0.01 | 8.33 ± 0.06 | CN(C)c1ccc(Cc2cc(-c3ccc(Cl)c(Cl)c3)n[nH]c2=O)cc1 [Compound 7c, 3-(3,4-Dichlorophenyl)-5-[(4-dimethylaminopheny)l-methyl]-1H-pyridazin-6-one]
 |  | 1.63 ± 0.15 | 10.4 ± 0.12 | 0.00433 ± 0.00012 |  |  |  |  | O=C(CC(=Cc1cccc([N+](=O)[O-])c1)c1n[nH]c(=S)o1)c1ccc(Cl)c(Cl)c1 [Compound 9b, 1-(3,4-Dichlorophenyl)-4-(3-nitrophenyl)-3-(2-thioxo-4,5-dihydro-1,3,4-oxadiazol-5-yl)but-3-en-1-one]
